Measurements published in US20160039880A1 (priority 2012, published 2016).
pIC50, pKi: −log10 of the molar value. In brackets after ≈: the same amount, converted by molar mass. Like-named read-outs stand apart in the source and are kept apart here.

Assays:
[1] = molecular target: T1, Human recombinant cyclophilin A (Cyp A) (Homo sapiens, UniProt P62937);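 note: cis to trans isomerization of SUC-AAPF-pNA by 2 nM enzyme, read as absorbance at 330 nm over 300 s at 10 °C, catalytic rate corrected for uncatalyzed background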
T1 sequence (P62937 whole entry): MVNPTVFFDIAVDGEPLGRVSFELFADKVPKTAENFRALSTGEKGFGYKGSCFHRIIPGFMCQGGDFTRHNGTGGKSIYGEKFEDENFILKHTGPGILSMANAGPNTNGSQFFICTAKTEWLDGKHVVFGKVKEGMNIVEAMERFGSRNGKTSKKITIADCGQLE

[2] = Water Solubility Assay (measured in pH 7.8 buffer); format: physicochemical; conditions: for Water Solubility Assay: pH 7.8; for solubility at 18 h: 25 °C;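 for all read-outs here: precipitation onset detected as rise in absorbance at 650 nm across increasing concentrations, after shaking for 18 h, blank wells receiving DMSO only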
Calcineurin [3] = molecular target: T2, Calcineurin (Homo sapiens, UniProt P62937+P63098+Q08209)
T2 sequence (P63098 whole entry, other chains not shown): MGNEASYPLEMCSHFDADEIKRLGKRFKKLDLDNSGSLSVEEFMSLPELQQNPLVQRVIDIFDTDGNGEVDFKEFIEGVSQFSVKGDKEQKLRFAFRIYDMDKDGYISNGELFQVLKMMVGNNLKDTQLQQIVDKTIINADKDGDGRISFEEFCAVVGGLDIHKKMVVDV
T2 sequence (P62937 whole entry, other chains not shown): as the sequence (P62937 whole entry) above

[4] = molecular target: T1, Human recombinant cyclophilin A (Cyp A); assay: Protease-free PPIase assay;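 note: cis to trans isomerization of SUC-AAPF-pNA by 2 nM enzyme, read as absorbance at 330 nm over 300 s at 10 °C, catalytic rate corrected for uncatalyzed background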
Calcineurin [5] = molecular target: T2, Calcineurin; assay: Calcineurin Phosphatase (CaN) Assay with Cyp A (+CypA); conditions: read-out: Calcineurin Phosphatase (CaN) Assay (+CypA) IC50; in the presence of Cyp A, 1:1 complex with inhibitor
[6] = read-out: Protease-free PPIase Assay Ki, cyclophilin A, 10 °C
[7] = 35 mM HEPES pH 7.8, 1% DMSO, 18 h, read-out: Water Solubility Assay, concentration at which the compound remains in solution

Row | pKi [1] | Water Solubility Assay [2] | pKi [4] | solubility at 18 h ([2]; pH 7.8, aqueous buffer, kinetic from dmso stock) | SMILES | immunosuppressive potential (Calcineurin [3]) | pKi [4, 6] | solubility at 18 h [2, 7] | pIC50 (Calcineurin [5])
1 | 7.92 | 25 to 50 µM |  |  | CC[C@H]1NC(=O)[C@@H]([C@H](O)[C@H](C)CCN2CC(F)(F)OC(F)(F)C2)N(C)C(=O)[C@@H](C(C)C)N(C)C(=O)[C@@H](CC(C)C)N(C)C(=O)[C@@H](CC(C)C)N(C)C(=O)[C@H](C)NC(=O)[C@@H](C)NC(=O)[C@@H](CC(C)C)N(C)C(=O)[C@@H](C(C)C)NC(=O)[C@H](CC(C)C)N(C)C(=O)[C@@H](C)N(C)C1=O [Compound EK, [(3R,4R,5S)-4-Hydroxy-3-methyl-5-(methylamino)-1-(2,2,6,6-tetrafluoro-morpholin-4-yl)-hexanoic acid]^1[(R)-methyl-Sar]^3 cyclosporin A] | more immunosuppressive potential than others |  |  | 
2 | 8.00 | 75 to 100 µM |  |  | CC[C@H]1NC(=O)[C@@H]([C@H](O)[C@H](C)CCN2CCC(F)(F)C2)N(C)C(=O)[C@@H](C(C)C)N(C)C(=O)[C@@H](CC(C)C)N(C)C(=O)[C@@H](CC(C)C)N(C)C(=O)[C@H](C)NC(=O)[C@@H](C)NC(=O)[C@@H](CC(C)C)N(C)C(=O)[C@@H](C(C)C)NC(=O)[C@H](CC(C)C)N(C)C(=O)[C@@H](C)N(C)C1=O [Compound EL, [(3R,4R,5S)-(3,3-Difluoro-pyrrolidin-1-yl)-4-Hydroxy-3-methyl-5-(methylamino)-1-hexanoic acid]^1[(R)-methyl-Sar]^3 cyclosporin A] | more immunosuppressive potential than others |  |  | 
3 | 8.02 | 75 to 100 µM |  |  | CC[C@H]1NC(=O)[C@@H]([C@H](O)[C@H](C)CCN2CC(F)(F)C2)N(C)C(=O)[C@@H](C(C)C)N(C)C(=O)[C@@H](CC(C)C)N(C)C(=O)[C@@H](CC(C)C)N(C)C(=O)[C@H](C)NC(=O)[C@@H](C)NC(=O)[C@@H](CC(C)C)N(C)C(=O)[C@@H](C(C)C)NC(=O)[C@H](CC(C)C)N(C)C(=O)[C@@H](C)N(C)C1=O [Compound EM, [(3R,4R,5S)-(3,3-Difluoro-azetidin-1-yl)-4-hydroxy-3-methyl-5-(methylamino)-1-hexanoic acid]^1[(R)-methyl-Sar]^3 cyclosporin A] | more immunosuppressive potential than others |  |  | 
4 | 8.17 | 25 to 50 µM |  |  | CC[C@H]1NC(=O)[C@@H]([C@H](O)[C@H](C)CCN2CCC(F)(F)CC2)N(C)C(=O)[C@@H](C(C)C)N(C)C(=O)[C@@H](CC(C)C)N(C)C(=O)[C@@H](CC(C)C)N(C)C(=O)[C@H](C)NC(=O)[C@@H](C)NC(=O)[C@@H](CC(C)C)N(C)C(=O)[C@@H](C(C)C)NC(=O)[C@H](CC(C)C)N(C)C(=O)[C@@H](C)N(C)C1=O [Compound EN, [(3R,4R,5S)-(4,4-Difluoro-piperidin-1-yl)-4-hydroxy-3-methyl-5-(methylamino)-1-hexanoic acid]^1[(R)-methyl-Sar]^3 cyclosporin A] | more immunosuppressive potential than others |  |  | 
5 |  |  | 8.47 | 50 to 75 µM (≈ 65.6 to 98.4 µg/mL) | CC[C@H]1NC(=O)[C@@H]([C@H](O)[C@H](C)CCN2CCC(F)(F)C2)N(C)C(=O)[C@@H](C(C)C)N(C)C(=O)[C@@H](CC(C)C)N(C)C(=O)[C@@H](CC(C)C)N(C)C(=O)[C@H](C)NC(=O)[C@@H](C)NC(=O)[C@@H](CC(C)C)N(C)C(=O)[C@@H](C(C)C)NC(=O)[C@H](CC(C)C)N(C)C(=O)[C@@H](CO)N(C)C1=O [Compound EP] | more immunosuppressive potential than others |  |  | 
6 | 8.34 | 25 to 50 µM |  |  | CCC1NC(=O)C(C(O)C(C)CCN(CCC(F)(F)F)CCC(F)(F)F)N(C)C(=O)C(C(C)C)N(C)C(=O)C(CC(C)C)N(C)C(=O)C(CC(C)C)N(C)C(=O)C(C)NC(=O)C(C)NC(=O)C(CC(C)C)N(C)C(=O)C(C(C)C)NC(=O)C(CC(C)C)N(C)C(=O)C(C)N(C)C1=O [Compound EQ, (3R,4R,5S)-1-[Bis-(3,3,3-trifluoro-propyl)-amino]-[(4-Hydroxy-3-methyl-5-(methylamino)-hexanoic acid]^1[(R)-methyl-Sar]^3 cyclosporin A] | more immunosuppressive potential than others |  |  | 
7 | 8.17 | 25 to 50 µM |  |  | CC[C@H]1NC(=O)[C@@H]([C@H](O)[C@H](C)CCN2CC(F)(F)C(F)(F)C2)N(C)C(=O)[C@@H](C(C)C)N(C)C(=O)[C@@H](CC(C)C)N(C)C(=O)[C@@H](CC(C)C)N(C)C(=O)[C@H](C)NC(=O)[C@@H](C)NC(=O)[C@@H](CC(C)C)N(C)C(=O)[C@@H](C(C)C)NC(=O)[C@H](CC(C)C)N(C)C(=O)[C@@H](C)N(C)C1=O [Compound ER, [(3R,4R,5S)-4-Hydroxy-3-methyl-5-(methylamino)-1-(3,3,4,4-tetrafluoro-pyrrolidin-1-yl)-hexanoic acid]^1[(R)-methyl-Sar]^3 cyclosporin A] | more immunosuppressive potential than others |  |  | 
8 |  |  |  |  | CC[C@H]1NC(=O)[C@@H]([C@H](O)[C@H](C)CCCC(=O)N2CCOCC2)N(C)C(=O)[C@@H](C(C)C)N(C)C(=O)[C@@H](CC(C)C)N(C)C(=O)[C@@H](CC(C)C)N(C)C(=O)[C@H](C)NC(=O)[C@@H](C)NC(=O)[C@@H](CC(C)C)N(C)C(=O)[C@@H](C(C)C)NC(=O)[C@H](CC(C)C)N(C)C(=O)[C@@H](C)N(C)C1=O [Compound H, [(5R,6R,7S)-6-hydroxy-5-methyl-7-(methylamino)-1-N-morpholino-1-oxo-octanoic acid]^1[(R)-methyl-Sar]^3 cyclosporin A] |  | 8.41 | >100 µM | < 5.00
9 |  |  |  |  | CC[C@H]1NC(=O)[C@@H]([C@H](O)[C@H](C)CCN2CCOCC2)N(C)C(=O)[C@@H](C(C)C)N(C)C(=O)[C@@H](CC(C)C)N(C)C(=O)[C@@H](CC(C)C)N(C)C(=O)[C@H](C)NC(=O)[C@@H](C)NC(=O)[C@@H](CC(C)C)N(C)C(=O)[C@@H](C(C)C)NC(=O)[C@H](CC(C)C)N(C)C(=O)[C@@H](COCCN(CC)CC)N(C)C1=O [Compound S, [(3R,4R,5S)-4-Hydroxy-3-methyl-5-(methylamino)-1-N-morpholino-hexanoic acid]^1[(R)-2-diethylaminoethyloxymethyl-Sar]^3 cyclosporin A] |  | 8.00 | >100 µM | < 5.00
10 |  |  |  |  | CC[C@H]1NC(=O)[C@@H]([C@H](O)[C@H](C)CCN2CCCOCC2)N(C)C(=O)[C@@H](C(C)C)N(C)C(=O)[C@@H](CC(C)C)N(C)C(=O)[C@@H](CC(C)C)N(C)C(=O)[C@H](C)NC(=O)[C@@H](C)NC(=O)[C@@H](CC(C)C)N(C)C(=O)[C@@H](C(C)C)NC(=O)[C@H](CC(C)C)N(C)C(=O)[C@@H](C)N(C)C1=O [Compound X] |  | 8.31 | >100 µM | < 5.00
